Laboratory results reported in patent US20240398795A1, “COMBINATION THERAPIES USING PRMT5 INHIBITORS FOR THE TREATMENT OF CANCER” (MIRATI THERAPEUTICS, INC., priority 2021, published 2024).

Key:
Type in all cases: in vivo, mice
[1] = test system: H1650 xenograft tumors; assay: NCI-H1650 xenograft tumor volume study; settings: n=5, MRTX1719 100 mg/kg PO QD, Docetaxel 10 mg/kg IP Q7D, combination 100 mg/kg PO QD + 10 mg/kg IP Q7D
Experimental: (§1) Immunodeficient female nu/nu or BALBC/Nude mice were subcutaneously implanted with 3×10^6 to 1×10^7 human derived cancer cells depending on the cell line xenograft model. Tumors were measured using calipers until they reached approximately 100-150 mm^3. […] Tumor volume was measured twice a week (n=5/treatment group). Average tumor volume and standard error of the mean was calculated and plotted at each study day in GraphPad.
(§2) This example was carried out according to the study procedure described above. The PRMT5 inhibitor was MRTX1719 administered at 100 mg/kg once a day (QD). MRTX1719 is (2M)-2-(4-(4-(aminomethyl)-1-oxo-1,2-dihydrophthalazin-6-yl)-1-methyl-1H-pyrazol-5-yl)-4-chloro-6-cyclopropoxy-3-fluorobenzonitrile, disclosed as Example 16-8 at p. 307 of the International patent publication No. WO 2021/050915 A1, published 18 Mar. 2021, incorporated by reference in its entirety.

[2] = test system: NCI-H2228 xenograft tumors; assay: NCI-H2228 xenograft tumor volume study; settings: n=5, MRTX1719 100 mg/kg PO QD, Docetaxel 10 mg/kg IP Q7D, combination 100 mg PO QD + 10 mg/kg IP Q7D
Experimental: as §1, §2
Substantially the same procedure as Example 1 was repeated except with mice bearing NCI-H2228 xenograft tumors.

[3] = test system: A549 xenograft tumors; assay: A549 xenograft tumor volume study; settings: n=5, MRTX1719 100 mg/kg PO QD, Docetaxel 15 mg/kg IP Q7D, combination 100 mg PO QD + 15 mg/kg IP Q7D
Experimental: as §1, §2
Substantially the same procedure as Example 1 was repeated except with mice bearing A549 xenograft tumors.

[4] = test system: HCC4006 xenograft tumors; assay: HCC4006 xenograft tumor volume study; settings: n=5, MRTX1719 100 mg/kg PO QD, Docetaxel 10 mg/kg IP Q7D, combination 100 mg PO QD + 10 mg/kg IP Q7D
Experimental: as §1, §2
Substantially the same procedure as Example 1 was repeated except with mice bearing HCC4006 xenograft tumors.

[5] = test system: SW1573 xenograft tumors; assay: SW1573 xenograft tumor volume study; settings: n=5, MRTX1719 50 mg/kg PO QD, Docetaxel 15 mg/kg IP Q7D, combination 50 mg PO QD + 15 mg/kg IP Q7D
Experimental: as §1
(§3) This example was carried out according to the study procedure described above. […] MRTX1719 is (2M)-2-(4-(4-(aminomethyl)-1-oxo-1,2-dihydrophthalazin-6-yl)-1-methyl-1H-pyrazol-5-yl)-4-chloro-6-cyclopropoxy-3-fluorobenzonitrile, disclosed as Example 16-8 at p. 307 of the International patent publication No. WO 2021/050915 A1, published 18 Mar. 2021, incorporated by reference in its entirety.
Substantially the same procedure as Example 1 was repeated except with mice bearing SW1573 xenograft tumors.

[6] = test system: LU99 xenograft tumors; assay: LU99 xenograft tumor volume study; settings: n=5, MRTX1719 50 mg/kg PO QD, Docetaxel 15 mg/kg IP Q7D, combination 50 mg PO QD + 15 mg/kg IP Q7D
Experimental: as §1, §3
Substantially the same procedure of Example 1 was repeated except with mice bearing LU99 xenograft tumors.

[7] = test system: MIAPaCa-2 xenograft tumors; assay: MIAPaCa-2 xenograft tumor volume study; settings: n=5, MRTX1719 100 mg/kg PO QD, Docetaxel 15 mg/kg IP Q7D, combination 100 mg PO QD + 15 mg/kg IP Q7D
Experimental: as §1
This example was carried out according to the study procedure described above. The PRMT5 inhibitor was MRTX1719 administered at 100 mg/kg once a day (QD). […] 307 of the International patent publication No. WO 2021/050915 A1, published 18 Mar. 2021, incorporated by reference in its entirety.
Substantially the same procedure of Example 1 was repeated except with mice bearing MIAPaCa-2 xenograft tumors.

[8] = test system: KP4 xenograft tumors; assay: KP4 xenograft tumor volume study; settings: n=5, Docetaxel 15 mg/kg IP Q7D, combination 100 mg PO QD + 15 mg/kg IP Q7D
Experimental: as §1, §2
Substantially the same procedure of Example 1 was repeated except with mice bearing KP4 xenograft tumors.

With `CC(=O)O[C@@]12CO[C@@H]1C[C@H](O)[C@@]1(C)C(=O)[C@H](O)C3=C(C)[C@@H](OC(=O)[C@H](O)[C@@H](NC(=O)OC(C)(C)C)c4ccccc4)C[C@@](O)([C@@H](OC(=O)c4ccccc4)[C@H]21)C3(C)C` [Docetaxel, docetaxel] the “Tumor Volume, Mean” value ([1]; Day 0) was 147 mm^3, the “Tumor Volume, Mean” value ([1]; Day 3) was 291 mm^3 and the “Tumor Volume, Mean” value ([1]; Day 7) was 425 mm^3. For the same molecule, the “Tumor Volume, Mean” value ([1]; Day 10) was 660 mm^3, the “Tumor Volume, Mean” value ([1]; Day 14) was 710 mm^3 and the “Tumor Volume, Mean” value ([1]; Day 17) was 770 mm^3. The “Tumor Volume, Mean” value ([1]; Day 20) was 826 mm^3, the “Tumor Volume, Mean” value ([2]; Day 0) was 121 mm^3 and the “Tumor Volume, Mean” value ([2]; Day 3) was 100 mm^3. For the same molecule, the “Tumor Volume, Mean” value ([2]; Day 6) was 73 mm^3, the “Tumor Volume, Mean” value ([2]; Day 9) was 76 mm^3 and the “Tumor Volume, Mean” value ([2]; Day 13) was 68 mm^3. For the same molecule, the “Tumor Volume, Mean” value ([2]; Day 16) was 42 mm^3, the “Tumor Volume, Mean” value ([2]; Day 20) was 15 mm^3 and the “Tumor Volume, Mean” value ([2]; Day 23) was 10 mm^3. For the same molecule, the “Tumor Volume, Mean” value ([2]; Day 27) was 12 mm^3, the “Tumor Volume, Mean” value ([3]; Day 1) was 118 mm^3 and the “Tumor Volume, Mean” value ([3]; Day 5) was 128 mm^3. For the same molecule, the “Tumor Volume, Mean” value ([3]; Day 8) was 156 mm^3, the “Tumor Volume, Mean” value ([3]; Day 12) was 160 mm^3 and the “Tumor Volume, Mean” value ([3]; Day 15) was 169 mm^3. For the same molecule, the “Tumor Volume, Mean” value ([3]; Day 19) was 167 mm^3, the “Tumor Volume, Mean” value ([3]; Day 22) was 163 mm^3 and the “Tumor Volume, Mean” value ([3]; Day 26) was 162 mm^3. The “Tumor Volume, Mean” value ([3]; Day 29) was 189 mm^3, the “Tumor Volume, Mean” value ([3]; Day 34) was 239 mm^3 and the “Tumor Volume, Mean” value ([4]; Day 0) was 126 mm^3. For the same molecule, the “Tumor Volume, Mean” value ([4]; Day 2) was 151 mm^3, the “Tumor Volume, Mean” value ([4]; Day 5) was 139 mm^3 and the “Tumor Volume, Mean” value ([4]; Day 9) was 140 mm^3. For the same molecule, the “Tumor Volume, Mean” value ([4]; Day 12) was 150 mm^3, the “Tumor Volume, Mean” value ([4]; Day 16) was 143 mm^3 and the “Tumor Volume, Mean” value ([4]; Day 20) was 137 mm^3. For the same molecule, the “Tumor Volume, Mean” value ([5]; Day 0) was 141 mm^3, the “Tumor Volume, Mean” value ([5]; Day 3) was 148 mm^3 and the “Tumor Volume, Mean” value ([5]; Day 8) was 191 mm^3. For the same molecule, the “Tumor Volume, Mean” value ([5]; Day 10) was 231 mm^3, the “Tumor Volume, Mean” value ([5]; Day 14) was 281 mm^3 and the “Tumor Volume, Mean” value ([5]; Day 17) was 302 mm^3. The “Tumor Volume, Mean” value ([5]; Day 21) was 352 mm^3, the “Tumor Volume, Mean” value ([6]; Day 0) was 153 mm^3 and the “Tumor Volume, Mean” value ([6]; Day 5) was 184 mm^3. For the same molecule, the “Tumor Volume, Mean” value ([6]; Day 8) was 299 mm^3, the “Tumor Volume, Mean” value ([6]; Day 12) was 459 mm^3 and the “Tumor Volume, Mean” value ([6]; Day 15) was 757 mm^3. The “Tumor Volume, Mean” value ([6]; Day 20) was 1057 mm^3, the “Tumor Volume, Mean” value ([6]; Day 22) was 1255 mm^3 and the “Tumor Volume, Mean” value ([6]; Day 26) was 1722 mm^3. The “Tumor Volume, Mean” value ([7]; Day 1) was 133 mm^3, the “Tumor Volume, Mean” value ([7]; Day 5) was 187 mm^3 and the “Tumor Volume, Mean” value ([7]; Day 13) was 268 mm^3. For the same molecule, the “Tumor Volume, Mean” value ([7]; Day 16) was 315 mm^3, the “Tumor Volume, Mean” value ([7]; Day 19) was 375 mm^3 and the “Tumor Volume, Mean” value ([7]; Day 22) was 415 mm^3. The “Tumor Volume, Mean” value ([8]; Day 0, MRTX1719 100 mg/kg PO QD) was 144 mm^3, the “Tumor Volume, Mean” value ([8]; Day 5, MRTX1719 100 mg/kg PO QD) was 121 mm^3 and the “Tumor Volume, Mean” value ([8]; Day 7, MRTX1719 100 mg/kg PO QD) was 105 mm^3. The “Tumor Volume, Mean” value ([8]; Day 11, MRTX1719 100 mg/kg PO QD) was 90 mm^3, the “Tumor Volume, Mean” value ([8]; Day 14, MRTX1719 100 mg/kg PO QD) was 82 mm^3 and the “Tumor Volume, Mean” value ([8]; Day 19, MRTX1719 100 mg/kg PO QD) was 126 mm^3. For the same molecule, the “Tumor Volume, Mean” value ([8]; Day 21, MRTX1719 100 mg/kg PO QD) was 272 mm^3, the “Tumor Volume, Mean” value ([8]; Day 25) was 482 mm^3 and the “Tumor Volume, Mean” value ([8]; Day 28) was 592 mm^3. The “Tumor Volume, Mean” value ([8]; Day 32) was 785 mm^3 and the “Tumor Volume, Mean” value ([8]; Day 35) was 895 mm^3.
